Key:
Shc [1] = experiment: E2-induced Shc phosphorylation in MCF-7 cells; type: cell-based, human; conditions: 10^−10 M E2 for 3 minutes
Method: Because ERα, Shc and MAP kinase are all involved in E2 action in MCF-7 cells, upstream components responsible for Shc phosphorylation were determined by measuring the effects of PP2, ICI and PD98059 on E2-induced phosphorylation of Shc. In the presence of the inhibitors, MCF-7 cells were stimulated with vehicle or 10^−10 M E2 for 3 minutes and the status of Shc phosphorylation was examined. […] No effects of these inhibitors were apparent in the absence of E2 stimulation. […] Each of these inhibitors was capable of reducing the rate of cell proliferation in LTED cells.

LTED cells [2] = experiment: Actin cytoskeleton (phalloidin staining) and ERα localization in LTED cells; type: cell-based, human; conditions: 10^−9 M
Description: It has been reported that cell mobility is controlled by a network of membrane initiated signals, such as activation of the Shc-Ras-MAPK pathway. Recently, it was reported that cell focal adhesions are highly dynamic structures. Cells can rapidly respond to the stimulation by growth factors and show reorganization of their cytoskeleton and cell shape. To examine E2 effects on reorganization of the actin cytoskeleton, the distribution of F-actin and also redistribution of the ERα localization in LTED and MCF-7 cells was determined by phalloidin staining. Untreated LTED cells expressed low actin polymerization and a few focal adhesion points. After E2 stimulation in contrast, the cytoskeleton underwent remodeling associated with formation of cellular ruffles, lamellipodias and leading edges, alterations of cell shape and loss of mature focal adhesion points. A subcellular redistribution of ERα to these dynamic membranes upon E2 stimulation represented another important feature of LTED cells. The ER antagonist ICI 182 780 at 10^−9 M blocked E2-induced ruffle formation as well as redistribution of ERα to the membrane with little effect by itself.

mTOR signaling = conditions: in cells; cited from earlier work
LTED cells [3] = experiment: [3H] thymidine incorporation into DNA, LTED cells; type: cell-based, human; conditions: inhibitors of the MAP kinase pathway
Method: FIGS. 5A & 5B represent the effect of FTS on DNA synthesis in MCF-7 (FIG. 5A) and LTED (FIG. 5B) cells. One hundred thousand cells were plated into each well of 24-well plates. Two days later, the cells were re-fed with IMEM containing 5% DCC-FBS. After another two days, cells were treated in quadruplicate with the compounds indicated for 18 hours. [^3H] thymidine (1 μCi/well) was added during the last 2 h of incubation. [^3H] thymidine incorporated into DNA was normalized by protein content.
The inhibitory effect of FTS on cell growth may be the result of inhibition of cellular proliferation, induction of apoptosis, or both. To determine the mechanism by which FTS inhibits cell growth, FTS's effect on DNA synthesis and apoptosis was investigated. […] Estradiol (10^−10 M) increased [^3H] thymidine incorporation by 2.6 fold compared to the control level in MCF-7 cells.

MCF-7 cells = experiment: Estradiol dose response of growth, wild type MCF-7 cells; type: cell-based, human; conditions: PD 98059 co-administered with TGF alpha
Method: (§1) As further evidence of the role of MAP kinase, PD 98059 was administered to LTED cells and its effect on level of sensitivity to estradiol was examined.
(§2) To investigate whether the MAP and P13 kinase pathways have a role in estradiol induced cell proliferation, the following experiments were conducted. […] Blockade of this effect was obtained with the MAPK inhibitor PD98059. Administration of TGF at a dose of 10 ng/ml caused a 2-log shift to the left in the ability of estradiol to stimulate the growth of wild-type MCF-7 cells. […] Dual inhibition of PI3K with LY40029 and MAPK with U0126 shifted the level of sensitivity to estradiol more dramatically, by more than 2 logs to the right. On the basis of these observations, it is believed that adaptive hypersensitivity involves the joint activation of the PI3K and MAPK pathways.

LTED cells [4] = experiment: Estradiol dose response of growth (hypersensitivity), LTED cells; type: cell-based, human; conditions: PD 98059 alone
Description: During the phase when tamoxifen first begins to stimulate tumor growth, removal of tamoxifen and administration of very low doses of estradiol stimulates tumor growth. In marked contrast, wild type tumors not exposed to tamoxifen long term are not stimulated by such low doses of estradiol. Taken together, these experiments indicate that either estradiol deprivation or blockade of estrogen action with antiestrogens enhances the level of sensitivity to estrogens or to the estrogenic properties of tamoxifen. This phenomenon of adaptive hypersensitivity is believed to be responsible for the superiority of aromatase inhibitors over tamoxifen in a variety of clinical settings.
as §1
as §2, with “On the basis of these observations, it is believed that adaptive hypersensitivity involves the joint activation of the PI3K and MAPK pathways.” left out

[5] = test system: hormone dependent breast cancer; conditions: women responding initially to tamoxifen then relapsing, crossed over; cited from earlier work
mTOR-raptor complex = experiment: Coimmunoprecipitation of raptor with mTOR, compound added to cell extracts or immune complexes; type: binding; conditions: caffeine 1 mM, LY294002 10 μM, rapamycin 1 μM plus FKBP12 10 μM, wortmannin 1 μM
Method: 293T cells were transfected with pcDNA3 alone (Vec.) or with a combination of pcDNA3AU1-mTOR, pcDNA33HA-Raptor, and pcDNA33HA-mLST8. Extracts of the cells were incubated with increasing concentrations of FTS before AU1-mTOR was immunoprecipated. Samples of the immune complexes were incubated with [γ-^32P]ATP and recombinant [His^6]PHAS-I, then subjected to SDS-PAGE and transferred to an immobilon membrane. After obtaining a phosphorimage of the membrane to detect ^32P-PHAS-I, the membrane was immunoblotted with PThr^36/45 antibodies. Other samples of the immune complexes were subjected to SDS-PAGE and immunoblots were prepared with antibodies to the HA epitope or to mTOR (see FIG. 13A). Extracts of nontransfected 293T cells were incubated with increasing concentrations of FTS before mTOR was immunoprecipated with mTAb1. A control immunoprecipitation was conducted using nonimmune IgG (NI). Immune complexes were subjected to SDS-PAGE and immunoblots were prepared with antibodies to mLST8, mTOR, and raptor.
Samples of extracts from 293T cells overexpressing AU1-mTOR, HA-raptor, and HA-mLST8 were incubated for 1 h with increasing concentrations of FTS (●, ▴, ▪) or GTS (∘, Δ, □) before immunoprecipitations were conducted with anti-AU1 antibodies. mTOR kinase activity (●, ∘) was determined by measuring ^32P incorporation into [His^6]PHAS-I in immune complex kinases assays performed with [γ-^32P]ATP (see FIG. 14A). The relative amounts of HA-raptor (▴, Δ) and HA-mLST8 (▪, □) that coimmunoprecipitated with AU1-mTOR were determined after immunoblotting with anti-HA antibodies (see FIG. 14B). The results (mean values+S.E. from 5 experiments) are expressed as percentages of the mTOR activity (FIG. 14A) or coimmunoprecipitating proteins (FIG. 14B) from samples incubated without FTS or GTS, and have been corrected for the amounts of AU1-mTOR immunoprecipitated.
293T cells were transfected with pcDNA3 alone (Vec.) or with a combination of pcDNA3AU1-mTOR, pcDNA33HARaptor, and pcDNA33HA-mLST8. AU1-mTOR was immunoprecipitated and samples of the washed immune complexes were at incubated […] for 30 min with no inhibitors or with the following: caffeine (1 mM), FTS (50 μM), LY294002 (10 μM), rapamycin (1 μM) plus FKBP12 (10 μM), and 1 μM wortmannin. To prevent destruction of wortmannin, incubations were conducted in the absence of thiol reducing agents. Samples of the immune complexes were incubated for 10 min with 10 mM MnCl2, 1 mM [γ-^32P]ATP, and 50 μg/ml [His^6]PHAS-I to assess mTOR activity. Other samples were rinsed twice, subjected to SDS-PAGE, and immunoblotted with anti-HA and anti-AU1 antibodies to determine the amounts of HA-raptor and HA-mLST8 associated with AU1-mTOR. The relative amounts of ^32P incorporated into PHAS-I were determined by phosphorimaging (see FIG. 15B).

MAP kinase = MAP kinase activation in LTED cells; type: cell-based, human
Method: Upregulation of MAP kinase and PI-3-kinase could reflect either a constitutive activation of growth factor receptors, an increase in the endogenous secretion of growth factors, or other mechanisms. Inhibition of MAP kinase with a pure antiestrogen would rule out the possibility of constitutive activation of growth factor receptors or growth factor secretion. Accordingly, the pure anti-estrogen, faslodex (fulvestrant) was administered and the level of activation of MAP kinase in LTED cells was examined.
Estrogen deprivation might trigger activation of a non-genomic, estrogen regulated, MAP kinase pathway which utilizes Shc. […] The addition of E2 stimulated MAP kinase phosphorylation in LTED cells within minutes. The increased MAP kinase phosphorylation by E2 was time and dose-dependent being greatly stimulated at 15 min and remaining elevated for at least 30 min. Maximal stimulation of MAP kinase phosphorylation was at 10^−10 M of E2.

Shc [6] = experiment: Shc tyrosine phosphorylation in LTED cells; type: cell-based, human; conditions: at 3 min and 15 min respectively
Method: Shc proteins are known to couple tyrosine kinase receptors to the MAPK pathway and activation of Shc involves the phosphorylation of SHC itself. To investigate if the Shc pathway was involved in the rapid action of estradiol in LTED cells, tyrosine phosphorylated proteins were immuno-precipitated and tested for the presence of Shc under E2 treatment. E2 rapidly stimulated Shc tyrosine phosphorylation in a dose and time dependent fashion with a peak at 3 minutes. The pure estrogen receptor antagonist, fulvestrant, blocked E2-induced Shc and MAPK phosphorylation at 3 min and 15 min respectively.

C[C@]12CC[C@@H]3c4ccc(O)cc4C[C@@H](CCCCCCCCC[S+]([O-])CCCC(F)(F)C(F)(F)F)[C@H]3[C@@H]1CC[C@@H]2O (stereo partly drawn) [ICI 182 780]
E2-induced Shc phosphorylation (Shc [1]): effectively inhibited | E2-induced ruffle formation and redistribution of ERα to the membrane (LTED cells [2]): blocked

CC[C@H](C)[C@@H](CO[C@@H](Cc1ccccc1)C(=O)N[C@@H](CCS(C)(=O)=O)C(=O)OC(C)C)NC[C@@H](N)CS [L-744,832]
time in which inhibition of mTOR signaling occurs (mTOR signaling): ≤ 1.5 h

COc1cccc(-c2cc(=O)c3ccccc3o2)c1N [PD98059]
incorporation of tritiated thymidine into DNA (LTED cells [3]): block the incorporation | TGF alpha induced left shift in estradiol dose response (MCF-7 cells): returned to baseline | TGF alpha induced left shift in estradiol dose response (MCF-7 cells; listed as PD 98059): returned back to baseline | shift to the right of estradiol dose response curves (LTED cells [4]): approximately one-half log | E2-induced Shc phosphorylation (Shc [1]): did not influence

CCC1(c2ccc(N)cc2)CCC(=O)NC1=O (stereo not drawn) [aminoglutethimide]
women with secondary clinical benefit [5]: 50%

Cn1c(=O)c2c(ncn2C)n(C)c1=O [caffeine, reference compound]
decrease of the association of AU1-mTOR and HA-raptor (mTOR-raptor complex): little, if any, effect

C[C@]12CC[C@@H]3c4ccc(O)cc4C[C@@H](CCCCCCCCC[S+]([O-])CCCC(F)(F)C(F)(F)F)[C@H]3[C@@H]1CC[C@@H]2O (stereo partly drawn) [fulvestrant]
level of activated MAP kinase (MAP kinase): returned the level of activated MAP kinase back to the level seen in wild type MCF-7 cells | E2-induced Shc and MAPK phosphorylation (Shc [6]): blocked
